# Test results as given in publication PMC4558515, “Exploring the role of MKK7 in excitotoxicity and cerebral ischemia: a novel pharmacological strategy against brain injury” (Cell Death & Disease, 2015).
# Residues, ends and D or L forms follow the SMILES beside them. No end group written: not given here.
# T1: human recombinant full-length MKK7 (Homo sapiens, UniProt O14733)
# T1 construct: human recombinant full-length MKK7 (residues M1-R419, as in NCBI/Protein entry NP_660186.1); purchased ProQinase GmbH, Freiburg, Germany
# T1 sequence (O14733 1-419): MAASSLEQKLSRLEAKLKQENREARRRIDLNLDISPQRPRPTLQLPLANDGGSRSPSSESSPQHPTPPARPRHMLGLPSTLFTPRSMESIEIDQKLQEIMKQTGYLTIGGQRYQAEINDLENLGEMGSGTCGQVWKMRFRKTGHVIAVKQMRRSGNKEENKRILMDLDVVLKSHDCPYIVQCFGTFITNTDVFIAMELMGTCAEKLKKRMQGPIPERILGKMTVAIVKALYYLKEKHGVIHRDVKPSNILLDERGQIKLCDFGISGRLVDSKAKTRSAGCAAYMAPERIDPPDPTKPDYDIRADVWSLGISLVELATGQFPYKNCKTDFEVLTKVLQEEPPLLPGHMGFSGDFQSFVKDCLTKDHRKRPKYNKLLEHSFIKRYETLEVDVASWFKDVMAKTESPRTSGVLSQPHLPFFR
# T2: human recombinant full-length MKK7 (mitogen-activated protein kinase kinase 7) (human, UniProt O14733-1 1-419)
# T2 construct: the vendor's protein may carry one (surmise); also called recombinant MKK7; source: bought: ProQinase GmbH
# T2 sequence (looked up): T1 sequence (O14733 1-419)
# B1: GADD45β_(69–86) peptide (peptide)
# peptide: IALQIHFTLIQSFCCDND
# modifications: not fully specified (C-terminus); cysteine pairing not given here
# notes: growth arrest and DNA damage-inducible 45β (GADD45β), residues 69-86 (the α-helix)
# B2: GADD45β: growth arrest and DNA damage-inducible 45β protein, binds MKK7 (protein, UniProt O75293 1-160, looked up)
# Growth arrest and DNA …: MTLEELVACDNAAQKMQTVTAAVEELLVAAQRQDRLTVGVYESAKLMNVDPDSVVLCLLAIDEEEEDDIALQIHFTLIQSFCCDNDINIVRVSGMQRLAQLLGEPAETQGTTEARDLHCLLVTNPHTDAWKSHGLVEVASYCEESRGNNQWVPYISLQER
# Experiments:
# [1] = biological target: T1, human recombinant full-length MKK7; assay: SPR binding of GADD45β69–86 to immobilized recombinant MKK7 (ProteOn XPR36); settings: heterogenous ligand model
# Protocol: Figure 2 GADD45β69–86 interacts with recombinant MKK7. Starting at time 0, the indicated concentrations of GADD45β69–86 were injected for 150 s over SPR sensor surfaces on which 5000 RUs of human recombinant MKK7 had been previously captured by amine coupling. The SPR chip was then washed with buffer alone to monitor ligand dissociation. Fitted sensorgrams show GADD45β69–86 binding to recombinant MKK7 in RUs. The data were obtained by subtracting the reference channels, containing bovine serum albumin or no polypeptides.
# Binding studies were performed on a ProteOn XPR36 Protein Interaction Array system (Bio-Rad Laboratories, Hercules, CA, USA). Detection of GADD45β69–86 interaction with MKK7 was performed by immobilizing ~5000 resonance units (RUs) of human recombinant full-length MKK7 (residues M1-R419, as in NCBI/Protein entry NP_660186.1; ProQinase GmbH, Freiburg, Germany) on the surface of a sensor chip (GL-C chip, Bio-Rad) by amine-coupling chemistry. GADD45β69–86 molecules were then perfused over the chip for 150 s to allow association, followed by 500 s buffer (PBST) wash to monitor dissociation. Signals were normalized to control channels containing ~5000 RUs of bovine serum albumin or no proteins. […]
# [2] = tested on: MKK7 (P-MKK7/MKK7) in cortical neurons; assay: Western blot P-MKK7/MKK7 ratio in cortical neurons; settings: 100 μM NMDA, versus CTR, n=6
# [3] = tested on: middle cerebral artery occlusion (MCAo) in rats; assay: MCAo model (electrocoagulation), infarct volume by TTC staining; type: in vivo, Sprague–Dawley rats
# [4] = tested on: MKK7 (P-MKK7/MKK7) in ipsilateral brain of MCAo rats; assay: Western blot P-MKK7/MKK7 ratio in ischemic brain tissue; type: in vivo, Sprague–Dawley rats; settings: 11 mg/kg 30 min before MCAO, n=3, P<0.05
# Protocol: Actin was used as loading control. […] Actin was used as loading control. […] Actin was used as loading control. […] Actin was used as loading control.
# Part I. Ischemia reperfusion (n=43). […] After 90 min, the clip was removed. […] Animals were initially killed 24 h post lesion.
# [5] = tested on: 12 DIV cortical neurons; assay: LDH assay, intrinsic toxicity of peptides on cortical neurons; type: cell-based, rat; settings: 24 h treatment, 1, 2.5, 5 and 10 μM; one-way ANOVA, P>0.05, n=8
# Protocol: (§1) Neuroprotection was evaluated by an LDH assay.
# [6] = tested on: cortical neurons (12 h OGD); assay: LDH assay, protection against oxygen–glucose deprivation (OGD); type: cell-based, rat; settings: 5 μM, 30 min pre-treatment, n=6, P<0.01
# Protocol: OGD was performed on cortical neurons maintained in an Hypoxia Incubator Chamber (StemCell Technologies, Vancouver, BC, Canada) for 12 h; during the first 4 min, oxygen in the chamber was replaced by a mixture of 95% N2 5% CO2; glucose deprivation was realized by substituting culture medium with glucose-free Neurobasal Medium (Life Technologies).
# as §1
# [7] = biological target: T2, human recombinant full-length MKK7 …; assay: SPR; ProteOn XPR36, GL-C chip; ~5000 RU of human recombinant full-length MKK7 immobilised by amine coupling; GADD45β_(69–86) perfused 150 s, then 500 s buffer (PBST) wash; referenced to channels with ~5000 RU bovine serum albumin or no protein; heterogenous ligand binding model; settings: both partners purified
# [8] = tested on: MEK1/2; settings: cited from earlier work
# Excerpt: (§2) We took advantage of the growth arrest and DNA damage-inducible 45β (GADD45β) ability to bind MKK7.[9], [14], [15] GADD45β is involved in the control of cell stress responses in cell cycle, DNA repair and oncogenesis.[9], [16] […] More importantly, GADD45β inhibition is MKK7-specific and has no effect on MKK4, MKK3/6 and MEK1/2 activity.[9] The minimal essential domain of interaction between MKK7 and GADD45β has already been defined (GADD45β60–86 and 69–86 sequences).[15] We here used ...
# [9] = tested on: MKK4; settings: cited from earlier work
# Excerpt: as §2
# [10] = tested on: MKK3/6; settings: cited from earlier work
# Excerpt: as §2
# [11] = tested on: MKK7; settings: cited from earlier work
# Excerpt: as §2
molecule,measurement,setting,value
CC[C@H](C)[C@H](N)C(=O)N[C@@H](C)C(=O)N[C@@H](CC(C)C)C(=O)N[C@@H](CCC(N)=O)C(=O)N[C@H](C(=O)N[C@@H](Cc1c[nH]cn1)C(=O)N[C@@H](Cc1ccccc1)C(=O)N[C@H](C(=O)N[C@@H](CC(C)C)C(=O)N[C@H](C(=O)N[C@@H](CCC(N)=O)C(=O)N[C@@H](CO)C(=O)N[C@@H](Cc1ccccc1)C(=O)N[C@@H](CS)C(=O)N[C@@H](CS)C(=O)N[C@@H](CC(=O)O)C(=O)N[C@@H](CC(N)=O)C(=O)N[C@@H](CC(=O)O)C(N)=O)[C@@H](C)CC)[C@@H](C)O)[C@@H](C)CC [GADD45β69–86] (H-IALQIHFTLIQSFCCDND-NH2),koff,[1],0.0013 s⁻¹
same,kon,[1],315 M⁻¹ s⁻¹
"CN[C@H](CC(=O)O)C(=O)O [NMDA, N-methyl-D-aspartate, reference compound]",increase of MKK7 phosphorylation,[2]; 5 min,1.7 fold
same,increase of MKK7 phosphorylation,[2]; 30 min,1.5 fold
same,increase of MKK7 phosphorylation,[2]; 60 min,1.9 fold
TAT-spacer-GADD45β60–86: cell-permeable MKK7 inhibitor peptide with spacer between TAT and GADD45β residues 60–86,reduction of infarct volume (abstract),"[3]; 1 week after MCAo, administration time not given",49%
same,"infarct volume, in words","[3]; 12-h post-ischemic injection, not shown",did not significantly decrease the infarct volume
same,percentage of ischemic volume on the whole rat brain,"[3]; 30 min before lesion, 24 h after lesion, mean±s.d., n=6, control 13.72±4.07% (n=5), P<0.01",7.85±2.03%
same,reduction of infarcted volume,"[3]; ICV (2 μl of 11 μg/μl; legend: 11 mg/kg) 30 min before lesion, 24 h after lesion, P<0.01",43%
same,reduction of infarct volume,"[3]; injected 6 h post ischemia, 1 week after MCAo",44%
same,reduction of infarct volume (Conclusions),"[3]; injected 6 h post ischemia, 1 week after lesion",49%
same,percentage of ischemic volume,"[3]; injected 6 h post lesion, 1 week after MCAo, mean±S.D., n=5, P<0.01",6.95±0.93%
same,percentage of ischemic volume on the whole rat brain,"[3]; injected 6 h post lesion, 24 h after lesion, mean±S.D., n=5, P<0.01",8.04±1.04%
same,reduction of infarct volume,"[3]; pre-ischemic (30 min before) administration, 1 week after MCAo",~50%
same,percentage of ischemic volume,"[3]; pre-ischemic (30 min before) administration, 1 week after MCAo, mean±S.D., n=5, control 12.42±2.22% (n=5), P<0.01",6.22±0.98%
same,reduction of P-MKK7/MKK7 ratio,[4]; 3 h after ischemia,54%
same,reduction of P-MKK7/MKK7 ratio,[4]; 6 h after ischemia,33%
same,"neuronal death (LDH), intrinsic toxicity",[5],did not induce neuronal death
same,inhibition of neuronal death induced by OGD (LDH),[6],95%
B1,Kd,[7],3.71 µM
B2,"effect on MEK1/2 activity, in words",[8],no effect
same,"effect on MKK4 activity, in words",[9],no effect
same,"effect on MKK3/6 activity, in words",[10],no effect
same,"binding to MKK7, in words",[11],binds tightly to MKK7
same,"inhibition of MKK7 enzymatic activity, in words",[11],inhibits its enzymatic activity
